Test results reported in patent US6635641B2 (Agouron Pharmaceuticals, Inc., priority 2000, dated 2003).
Counter-ions that a name gives are not always drawn. Like-named read-outs stand apart in the source and are kept apart here.

Tests used:
[1] = biological target: T1, phosphorylated VEGF-R2Δ50 (FLVK-P) (Homo sapiens, UniProt P35968, DEL940-989/E990V); assay: VEGF-R2 coupled spectrophotometric assay, phosphorylated construct (FLVK-P); type: biochemical
T1 construct: VEGF-R2Δ50 contains residues 806-939 and 990-1171; made in house; host or cells: baculovirus/insect cells
How it was run: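 Continuous PK/LDH-coupled spectrophotometric read (NADH loss at 340 nm) with 5–40 nM enzyme in 200 mM Hepes pH 7.5. Phosphorylated construct run at 1 mM ATP, 25 mM MgCl2, 5.1 mM poly(E4Y1); unphosphorylated at 3 mM ATP, 60 mM MgCl2 plus 2 mM MnCl2, 20 mM poly(E4Y1). Ki values derived from varied inhibitor concentrations.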

[2] = biological target: T2, unphosphorylated VEGF-R2Δ50 (FLVK) (Homo sapiens, UniProt P35968, DEL940-989/E990V); assay: VEGF-R2 coupled spectrophotometric assay, unphosphorylated construct (FLVK); type: biochemical;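 note: Baculovirus-expressed cytosolic kinase domain, ADP formation linked via pyruvate kinase and lactate dehydrogenase to NADH oxidation, read as falling absorbance at 340 nm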
T2 construct: VEGF-R2Δ50 contains residues 806-939 and 990-1171; made in house; host or cells: baculovirus/insect cells

[3] = tested on: human umbilical vein endothelial cells (HUVEC); assay: HUVEC proliferation assay (VEGF-stimulated, MTT); type: cell-based; conditions: Homo sapiens, read-out: HUVEC IC50
Method: This assay determines the ability of a test compound to inhibit the growth factor-stimulated proliferation of human umbilical vein endothelial cells (“HUVEC”). HUVEC cells (passage 3-4, Clonetics, Corp.) were thawed into EGM2 culture medium (Clonetics Corp) in T75 flasks. Fresh EGM2 medium was added to the flasks 24 hours later. Four or five days later, cells were exposed to another culture medium (F12K medium supplemented with 10% fetal bovine serum (FBS), 60 μg/ml endothelial cell growth supplement (ECGS), and 0.1 mg/ml heparin). Exponentially-growing HUVEC cells were used in experiments thereafter. Ten to twelve thousand HUVEC cells were plated in 96-well dishes in 100 μl of rich, culture medium (described above). The cells were allowed to attach for 24 hours in this medium. The medium was then removed by aspiration and 105 μl of starvation media (F12K+1% FBS) was added to each well. After 24 hours, 15 μl of test agent dissolved in 1% DMSO in starvation medium or this vehicle alone was added into each treatment well; the final DMSO concentration was 0.1%. One hour later, 30 μl of VEGF (30 ng/ml) in starvation media was added to all wells except those containing untreated controls; the final VEGF concentration was 6 ng/ml. Cellular proliferation was quantified 72 hours later by MTT dye reduction, at which time cells were exposed for 4 hours MTT (Promega Corp.). Dye reduction was stopped by addition of a stop solution (Promega Corp.) and absorbance at 595 λ was determined on a 96-well spectrophotometer plate reader.

[4] = tested on: lung cancer cells (line MV522); assay: Cancer cell proliferation (MV522) assay (MTT); type: cell-based
Method: The protocol for assessing cellular proliferation in cancer cells is similar to that used for assessments in HUVEC cells. Two thousand lung cancer cells (line MV522, acquired from American Tissue Cultural Collection) were seeded in growth media (RPMI1640 medium supplemented with 2 mM glutamine and 10% FBS). Cells are allowed to attach for 1 day prior to addition of test agents and/or vehicles. Cells are treated simultaneously with the same test agents used in the HUVEC assay. Cellular proliferation is quantified by MTT dye reduction assay 72 hours after exposure to test agents. The total length of the assay is 4 days vs. 5 for HUVEC cells because MV522 cells are not exposed to starvation medium.

LCK tyrosine kinase = biological target: T3, LCK tyrosine kinase (Homo sapiens, UniProt P06239, C224D/P223M); assay: LCK spectrophotometric assay; type: biochemical; conditions: @ 1 μM; read-out: LCK-P percent inhibition;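 note: recombinant LCK kinase activity on poly(E4Y1), ADP formation coupled through PK/LDH to NADH oxidation, followed as absorbance loss at 340 nm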
T3 construct: starting from amino acid residue 223 to the end of the protein at residue 509; made in house; host or cells: insect cells
T3 sequence (P06239 223-509 P223M/C224D): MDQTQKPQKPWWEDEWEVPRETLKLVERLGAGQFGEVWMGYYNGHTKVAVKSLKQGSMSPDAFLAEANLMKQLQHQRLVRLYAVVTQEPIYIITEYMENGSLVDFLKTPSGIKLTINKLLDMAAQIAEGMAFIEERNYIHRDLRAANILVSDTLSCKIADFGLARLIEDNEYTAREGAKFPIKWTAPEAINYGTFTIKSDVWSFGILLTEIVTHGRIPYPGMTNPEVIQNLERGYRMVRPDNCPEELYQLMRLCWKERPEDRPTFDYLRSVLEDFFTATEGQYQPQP

T2 sequence (P35968 with tags, fused parts or gaps DEL940-989/E990V limits assumed): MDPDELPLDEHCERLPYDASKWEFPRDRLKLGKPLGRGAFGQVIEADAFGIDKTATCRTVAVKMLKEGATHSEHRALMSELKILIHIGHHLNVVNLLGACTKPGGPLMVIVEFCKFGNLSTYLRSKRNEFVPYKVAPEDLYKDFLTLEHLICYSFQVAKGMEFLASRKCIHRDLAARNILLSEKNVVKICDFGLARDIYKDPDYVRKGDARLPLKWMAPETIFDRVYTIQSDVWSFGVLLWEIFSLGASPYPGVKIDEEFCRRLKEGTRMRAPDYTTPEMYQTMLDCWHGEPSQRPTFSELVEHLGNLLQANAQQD
T1 sequence (P35968 with tags, fused parts or gaps DEL940-989/E990V limits assumed): as above

melting point | Ki [1] [nM] | IC50 ([4]; MV522) [nM] | SMILES | IC50 ([3]; HUVEC) [nM] | also measured
103 to 107 °C | – | – | O=C(Nc1ccc(N2CCNCC2)c(C(F)(F)F)c1)c1ccc(F)c(OCc2cncc3ccccc23)c1 (as salt: hydrochloride) [Example R-15, 4-Fluoro-N-(4-piperazin-1-yl-3-trifluoromethyl-phenyl)-3-(isoquinolin-4-ylmethoxy)-benzamide] | – | –
76 to 78 °C | – | – | O=C(Nc1ccc(N2CCNCC2)c(C(F)(F)F)c1)c1ccc(F)c(OCc2cnc3ccccc3c2)c1 (as salt: hydrochloride) [Example R-17, 4-Fluoro-N-(4-piperazin-1-yl-3-trifluoromethyl-phenyl)-3-(quinolin-3-ylmethoxy)-benzamide] | – | –
58 to 62 °C | – | – | O=C(Nc1cccc(OCc2cccnc2)c1)N1CCOCC1 (as salt: salt) [Example Y-2, 4-[3-(pyridin-3-ylmethoxy)phenylcarbamoyl]morpholine] | – | –
112 to 119 °C | 785 | – | COc1cc(NC(=O)c2cccc(CSc3cnccn3)c2)cc(OC)c1OC [Example A-1, N-(3,4,5-Trimethoxyphenyl)-3-[(pyrazin-2-yl)sulfanylmethyl]benzamide] | – | –
133 to 135 °C | 1050 | – | Cc1ccc2cc(NC(=O)c3cccc(CSc4cnccn4)c3)ccc2n1 [Example A-6, N-(2-Methylquinolin-6-yl)-3-[(pyrazin-2-yl)sulfanylmethyl]benzamide] | – | –
– | 3.36 | > 10000 | Cc1c(Br)cc(NC(=O)c2cccc(CSc3cnccn3)c2)cc1Br [Example A-8, N-(3,5-Dibromo-4-methylphenyl)-3-[(pyrazin-2-yl)sulfanylmethyl]benzamide] | 740 | Ki [2]: 1.9 nM
236 to 240 °C (dec.) | 406 | – | O=C(Nc1ccc2ncccc2c1)c1cccc(CSc2ncnc3[nH]ncc23)c1 [Example B-3, N-(Quinolin-6-yl)-3-[(1H-pyrazolo[3,4-d]pyrimidin-4-yl)sulfanylmethyl]benzamide] | – | –
– | 15 | > 10000 | COc1cc(NC(=O)c2cccc(CSc3ncnc4[nH]ncc34)c2)cc(C(F)(F)F)c1 [Example B-16, 3-[(1H-Pyrazolo[3,4-d]pyrimidin-4-yl)sulfanylmethyl]-N(3-trifluoromethyl-5-methoxyphenyl)-benzamide] | 370 | inhibition at 1 µM (LCK tyrosine kinase): 9%
> 165 °C (dec.) | – | – | COc1cc(NC(=O)c2cccc(CSc3nc(NC#N)n[nH]3)c2)cc(OC)c1OC [Example C-1, 3-[(5-Cyanoamino-2H-[1,2,4]triazol-3-yl)sulfanylmethyl]-N-(3,4,5-trimethoxyphenyl)benzamide] | – | –
> 150 °C (dec.) | – | – | COC(=O)Nc1n[nH]c(SCc2cccc(C(=O)Nc3cc(OC)c(OC)c(OC)c3)c2)n1 [Example C-2, 3-[(5-(Methoxycarbonylamino)-2H-[1,2,4]triazol-3-yl)sulfanylmethyl]-N-(3,4,5-Trimethoxyphenyl)benzamide] | – | –
196 to 201 °C | – | – | COc1cc(NC(=O)c2cccc(CSc3nc(NC(C)=O)n[nH]3)c2)cc(OC)c1OC [Example C-3, N-(3,4,5-Trimethoxyphenyl)-3-[(5-acetylamino-2H-[1,2,4]triazol-3-yl)sulfanylmethyl]benzamide] | – | –
102 to 105 °C | 1640 | – | Cc1ccc2cc(NC(=O)c3cccc(SCc4cnccn4)c3)ccc2n1 [Example D-2, N-(2-Methylquinolin-6-yl)-3-[(pyrazin-2-yl)methylsulfanyl]benzamide] | – | –
– | 8.84 | > 10000 | COc1cc(/C=C/c2cc(CNc3cccc(C(=O)Nc4ccc(C(C)C)c(C)c4)c3)[nH]n2)ccc1O [Example I-1, 3-[({3-[(E)-2-(4-hydroxy-3-methoxyphenyl)ethenyl]-1H-pyrazol-5-yl}methyl)amino]-N-(3-methyl-4-isopropylphenyl)benzamide] | 220 | –
– | 64 | > 10000 | CSc1cc(C)nc2ccc(NC(=O)c3cccc(OCc4cncc5ccccc45)c3)cc12 [Example K-4, 3-(Isoquinolin-4-yl)methoxy-N-(2-methyl-4-methylsulfanyl-quinolin-6-yl)-benzamide hydrochloride] | 380 | –
78 to 81 °C | – | – | Cc1cc(NC(=O)c2cccc(OCc3ccc(N)nc3)c2)ccc1C(C)C [Example L-1, 3-(6-Aminopyridin-3-yl)methoxy-N-(4-Isopropyl-3-methyl-phenyl)-benzamide] | – | –
189 to 192 °C | 52 | – | Cc1ccc2cc(NC(=O)c3cccc(OCc4ccc(N)nc4)c3)ccc2n1 [Example M-1, 3-(6-Aminopyridin-3-yl)methoxy-N-(2-methyl-quinolin-6-yl)-benzamide] | – | –
– | – | < 3000 | O=C(Nc1ccc2c(c1)CCCN2)c1ccc(F)c(OCc2cncc3ccccc23)c1 [Example O-1, 4-Fluoro-N-(1,2,3,4-tetrahydroquinolin-6-yl)-3-(isoquinolin-4-ylmethoxy)-benzamide bistrifluoroacetic acid salt] | > 300 | Ki [2]: 5.5 nM
– | 2.53 | 430 | Cc1c(Br)cc(NC(=O)c2cccc(OCc3cncc4ccccc34)c2)cc1Br [Example R-2, N-(3,5-Dibromo-4-methyl-phenyl)-3-(isoquinolin-4-ylmethoxy)-benzamide] | 110 | –
– | – | 9700 | CC1(C)CCC(C)(C)c2cc(NC(=O)c3cccc(OCc4cncc5ccccc45)c3)ccc21 [Example R-3, 3-(Isoquinolin-4-ylmethoxy)-N-(5,5,8,8-tetramethyl-5,6,7,8-tetrahydronaphthalen-2-yl)-benzamide] | 50 | inhibition at 5 µM ([1]; @ 5 μM, read-out: FLVK-P percent inhibition): 67%
– | 9.93 | 9900 | O=C(Nc1cccc(OC(F)(F)F)c1)c1cccc(OCc2cncc3ccccc23)c1 [Example R-4, 3-(Isoquinolin-4-ylmethoxy)-N-(3-trifluoromethoxy-phenyl)-benzamide] | 88 | Ki [2]: 2.4 nM; inhibition at 1 µM (LCK tyrosine kinase): 28%
– | 11.2 | 10000 | Cc1cc(C)c2cc(NC(=O)c3cccc(OCc4cncc5ccccc45)c3)ccc2n1 [Example R-5, N-(2,4-Dimethylquinolin-6-yl)-3-(isoquinolin-4-ylmethoxy)-benzamide] | 89 | Ki [2]: 1.7 nM
– | 12.1 | > 10000 | CC1(C)OC(C)(C)c2cc(NC(=O)c3cccc(OCc4cncc5ccccc45)c3)ccc21 [Example R-10, 3-(Isoquinolin-4-ylmethoxy)-N-(1,1,3,3-tetramethyl-1,3-dihydroisobenzofuran-5-yl)-benzamide] | 28 | Ki [2]: 6.9 nM; inhibition at 1 µM (LCK tyrosine kinase): 23%
– | 13 | 10000 | O=C(Nc1cccc(CSc2ncnc3[nH]ncc23)c1)c1cc(C(F)(F)F)cc(C(F)(F)F)c1 [Example V-2] | 180 | –
– | – | – | CC(C)(C)c1cc(C(=O)Nc2cccc(OCc3cncc4ccccc34)c2)ccc1O [Example X-5, 3-t-Butyl-4-hydroxy-N-[3-(isoquinolin-4-ylmethoxy)-phenyl]-benzamide] | – | Ki ([2]; unphosphorylated VEGF-R2 construct): 1.3 nM; IC50 ([3]; VEGF-stimulated HUVEC proliferation): 29 nM; IC50 ([4]; MV522 lung cancer cells): 3700 nM

SMILES | melting point | Ki [1] [nM] | IC50 ([4]; MV522) [nM] | IC50 ([3]; HUVEC) [nM] | also measured
Cc1cc(NC(=O)c2cccc(OCc3cnc(NNC(=O)OC(C)(C)C)c4ccccc34)c2)ccc1C(C)C [Example P-1, N′-{4-[3-(4-isopropyl-3-methyl-phenylcarbamoyl)-phenoxymethyl]-isoquinolin-1-yl}-hydrazinecarboxylic acid tert-butyl ester] | 125 to 129 °C | – | – | – | inhibition at 0.05 µM ([1]; @ 50 nM, read-out: FLVK-P percent inhibition): 4%
